Test results: paper PMC6263802 (Journal of natural products, 2018)
Read-outs that look alike come from different tables or passages of the source.

Legend:
hAChE = hAChE (Homo sapiens, UniProt P22303); assay: Inhibition of human acetylcholinesterase with acetylthiocholine; assay type: biochemical; conditions: for inhibition at 10 µM: read-out: hAChE % Inhibition at 10μM
hBChE = hBChE (Homo sapiens, UniProt P06276); assay: Inhibition of human butyrylcholinesterase with butyrylthiocholine; assay type: biochemical; conditions: for inhibition at 10 µM: read-out: hBChE % Inhibition at 10μM
[1] = biological target: T1, hCE1 (human liver CE; CES1) (Homo sapiens, UniProt P23141); assay: Inhibition of hCE1 with o-nitrophenyl acetate; assay type: biochemical; conditions: for hCE1 (o-NPA) Fold increase in potency: compared to the parent tanshinone
T1 sequence (P23141 18-563 limits assumed): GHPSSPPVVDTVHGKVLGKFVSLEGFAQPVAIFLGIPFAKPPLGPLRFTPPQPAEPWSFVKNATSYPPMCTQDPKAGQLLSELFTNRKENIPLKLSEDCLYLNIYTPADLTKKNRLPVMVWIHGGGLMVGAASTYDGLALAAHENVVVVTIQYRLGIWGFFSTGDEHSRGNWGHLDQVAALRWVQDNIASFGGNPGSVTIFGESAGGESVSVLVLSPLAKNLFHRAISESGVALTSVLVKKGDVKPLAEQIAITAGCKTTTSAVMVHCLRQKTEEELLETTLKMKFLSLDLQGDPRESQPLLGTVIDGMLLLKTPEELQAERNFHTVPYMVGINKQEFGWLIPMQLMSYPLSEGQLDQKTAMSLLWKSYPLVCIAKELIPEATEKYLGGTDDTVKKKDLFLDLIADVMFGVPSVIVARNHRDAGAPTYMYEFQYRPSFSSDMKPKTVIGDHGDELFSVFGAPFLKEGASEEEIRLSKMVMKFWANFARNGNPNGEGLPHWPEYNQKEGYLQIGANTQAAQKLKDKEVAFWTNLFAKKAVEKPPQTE

[2] = biological target: T2, hiCE (human intestinal CE; CES2) (Homo sapiens, UniProt O00748); assay: Inhibition of hiCE with o-NPA as substrate, spectrophotometric assay; assay type: biochemical; conditions: compared to the parent tanshinone
T2 sequence (O00748 27-555 limits assumed): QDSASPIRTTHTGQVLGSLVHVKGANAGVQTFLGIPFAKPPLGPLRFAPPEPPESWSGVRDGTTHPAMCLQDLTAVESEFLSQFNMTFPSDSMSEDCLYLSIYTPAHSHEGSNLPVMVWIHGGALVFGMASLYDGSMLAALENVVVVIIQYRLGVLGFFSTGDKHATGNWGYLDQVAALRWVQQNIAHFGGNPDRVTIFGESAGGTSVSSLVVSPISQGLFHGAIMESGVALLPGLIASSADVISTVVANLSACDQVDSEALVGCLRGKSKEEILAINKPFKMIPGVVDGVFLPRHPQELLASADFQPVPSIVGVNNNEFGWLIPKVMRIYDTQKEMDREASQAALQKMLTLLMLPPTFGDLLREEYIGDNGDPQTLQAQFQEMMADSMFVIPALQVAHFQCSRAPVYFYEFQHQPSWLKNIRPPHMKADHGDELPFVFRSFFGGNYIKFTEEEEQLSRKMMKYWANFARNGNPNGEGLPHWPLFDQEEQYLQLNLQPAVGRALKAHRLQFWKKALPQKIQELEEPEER

hCE1 [3] = biological target: T3, hCE1 (Homo sapiens, UniProt P23141); assay type: biochemical; conditions: after pre-incubation and removal of the small molecule
T3 sequence (P23141 18-563 limits assumed): T1 sequence (P23141 18-563 limits assumed)

hiCE = biological target: T4, hiCE (Homo sapiens, UniProt O00748); assay type: biochemical; conditions: after pre-incubation and removal of the small molecule
T4 sequence (O00748 27-555 limits assumed): T2 sequence (O00748 27-555 limits assumed)

[4] = tested on: U373MG cells expressing hCE1; assay: Intracellular inhibition of oseltamivir hydrolysis; assay type: cell-based, human; conditions: 10μM inhibitor 10 min, then oseltamivir 20μM 30 min; versus DMSO
hCE1 [5] = biological target: T3, hCE1; assay: MS analysis of hCE1 protein after incubation with small molecules; conditions: for Increase in mass of hCE1 after incubation: all three enzyme species, 4 at 10μM
[6] = biological target: T1, hCE1 (human liver CE; CES1); conditions: read-out: hCE1 (o-NPA) Ki ± SE; parent tanshinones, previously reported; cited from earlier work
[7] = hCE1 species of 61374 Da (first glycoform)
[8] = hCE1 species of 61537 Da (second glycoform)
[9] = hCE1 species of 61698 Da (third glycoform)

hBChE, sequence (P06276 29-602): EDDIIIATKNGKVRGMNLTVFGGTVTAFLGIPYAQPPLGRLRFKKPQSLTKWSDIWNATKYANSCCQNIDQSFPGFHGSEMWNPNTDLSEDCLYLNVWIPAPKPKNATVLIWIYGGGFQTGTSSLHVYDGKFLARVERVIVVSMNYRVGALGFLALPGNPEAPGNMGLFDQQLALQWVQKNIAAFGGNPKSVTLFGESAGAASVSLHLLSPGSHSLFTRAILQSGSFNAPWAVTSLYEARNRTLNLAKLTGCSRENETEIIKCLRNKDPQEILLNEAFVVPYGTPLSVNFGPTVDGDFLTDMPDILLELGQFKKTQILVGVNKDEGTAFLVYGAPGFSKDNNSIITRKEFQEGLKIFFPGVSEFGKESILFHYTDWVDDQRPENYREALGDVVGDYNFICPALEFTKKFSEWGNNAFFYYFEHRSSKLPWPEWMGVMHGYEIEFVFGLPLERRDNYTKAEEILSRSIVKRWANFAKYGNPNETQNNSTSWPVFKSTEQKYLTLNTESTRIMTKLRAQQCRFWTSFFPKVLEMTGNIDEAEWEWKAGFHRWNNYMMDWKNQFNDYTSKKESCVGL
hAChE, sequence (P22303 32-614): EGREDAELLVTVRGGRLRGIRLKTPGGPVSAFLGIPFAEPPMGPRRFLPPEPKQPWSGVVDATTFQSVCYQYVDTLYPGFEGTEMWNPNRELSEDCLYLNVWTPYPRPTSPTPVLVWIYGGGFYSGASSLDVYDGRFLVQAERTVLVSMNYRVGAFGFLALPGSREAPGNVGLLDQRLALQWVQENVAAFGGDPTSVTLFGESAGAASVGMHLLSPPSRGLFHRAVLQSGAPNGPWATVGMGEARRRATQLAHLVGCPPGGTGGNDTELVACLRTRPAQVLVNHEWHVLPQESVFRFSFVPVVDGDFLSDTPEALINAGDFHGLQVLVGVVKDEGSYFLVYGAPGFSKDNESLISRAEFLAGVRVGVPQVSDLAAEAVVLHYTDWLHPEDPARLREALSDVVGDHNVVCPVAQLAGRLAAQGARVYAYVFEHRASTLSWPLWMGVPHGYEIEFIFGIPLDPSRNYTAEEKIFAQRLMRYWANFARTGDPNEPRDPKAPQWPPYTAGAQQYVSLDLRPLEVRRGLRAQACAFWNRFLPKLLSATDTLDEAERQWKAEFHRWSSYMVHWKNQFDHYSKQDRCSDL

| SMILES | IC50 (hAChE) [µM] | inhibition at 10 µM (hAChE) [%] | IC50 (hBChE) [µM] | inhibition at 10 µM (hBChE) [%] | hCE1 (o-NPA) Fold increase in potency [1] | hiCE (o-NPA) Fold increase in potency [2] | Irreversibility of hCE1 inhibition (hCE1 [3]) | Irreversibility of hiCE inhibition (hiCE) | Reduction in oseltamivir hydrolysis (oseltamivir carboxylate formed) [4] | also measured |
| --- | --- | --- | --- | --- | --- | --- | --- | --- | --- | --- |
| Cc1coc2c1C(=O)C(=O)c1c-2ccc2c(C)cccc12 [Compound 1, Tanshinone I] | > 10 | 10 | > 10 | 6 |  |  |  |  |  |  |
| Cc1cccc2c1ccc1c3occ(C)c3c(=O)oc(=O)c21 [Compound 2, 4,9-dimethylfuro[3,2-c]naphtho[2,1-e]oxepine-1,3-dione] |  |  |  |  | 10,937 fold | 17,744 fold | irreversible inhibition | irreversible inhibition | more than 70% |  |
| Cc1coc2c1C(=O)C(=O)c1c-2ccc2c1CCCC2(C)C [Compound 3, Tanshinone IIA] | > 10 | 4 | > 10 | 1 |  |  |  |  |  |  |
| Cc1coc2c1c(=O)oc(=O)c1c3c(ccc12)C(C)(C)CCC3 [Compound 4, 4,9,9-trimethyl-9,10,11,12-tetrahydrofuro[3,2-c]naphtho[2,1-e]oxepine-1,3-dione] |  |  |  |  | 3,626 fold | 1,750 fold | irreversible inhibition | irreversible inhibition | more than 70% | IC50 [1]: 0.00106 µM; Irreversibility of hCE1 inhibition (hCE1 [3]; listed as A): irreversible enzyme inhibition; Irreversibility of hiCE inhibition (hiCE; listed as A): irreversible enzyme inhibition; Increase in mass of hCE1 after incubation (hCE1 [5]): 308–312 Da; Observed mass of adduct (hCE1 [5]; [7]): 312 Da; Observed mass of adduct (hCE1 [5]; [8]): 308 Da; Observed mass of adduct (hCE1 [5]; [9]): 309.8 Da |
| Cc1cccc2c3c(ccc12)C1=C(C(=O)C3=O)[C@@H](C)CO1 [Compound 5, Dihydro-tanshinone] |  |  |  |  |  |  |  |  |  | hAChE % Inhibition at 10μM (hAChE; 10μM inhibitor): 84%; IC50 (hAChE; read-out: hAChE IC50 ± SE, ATCh substrate): 1.95 µM; hBChE % Inhibition at 10μM (hBChE; 10μM inhibitor): 5%; IC50 (hBChE; read-out: hBChE IC50 ± SE, BTCh substrate): > 10 µM; Ki [6]: 0.398 ± 0.066 µM |
| Cc1cccc2c1ccc1c3c(c(=O)oc(=O)c12)[C@@H](C)CO3 [Compound 6, 4,9-dimethyl-4,5-dihydrofuro[3,2-c]naphtho[2,1-e]oxepine-1,3-dione] |  |  |  |  | 111 fold | 193 fold | irreversible inhibition | irreversible inhibition |  | Observed mass of adduct (hCE1 [5]; [7]): 288 Da; Observed mass of adduct (hCE1 [5]; [8]): 289 Da; Observed mass of adduct (hCE1 [5]; [9]): 282 Da |
| C[C@H]1COC2=C1C(=O)C(=O)c1c2ccc2c1CCCC2(C)C [Compound 7, Crypto-tanshinone] | 6.41 | 44 | > 10 | 1 |  |  |  |  |  |  |
| C[C@H]1COc2c1c(=O)oc(=O)c1c3c(ccc21)C(C)(C)CCC3 [Compound 8, 4,9,9-trimethyl-4,5,9,10,11,12-hexahydrofuro[3,2-c]naphtho[2,1-e]oxepine-1,3-dione] |  |  |  |  | 194 fold | 188 fold | irreversible inhibition | irreversible inhibition | more than 70% | IC50 [1]: 0.00133 µM; Irreversibility of hCE1 inhibition (hCE1 [3]; listed as B): irreversible enzyme inhibition; Irreversibility of hiCE inhibition (hiCE; listed as B): irreversible enzyme inhibition |
| O=S(=O)(F)Cc1ccccc1 [PMSF, phenylmethanesulfonyl fluoride, reference compound] |  |  |  |  |  |  |  |  |  | Increase in mass of hCE1 after incubation (hCE1 [5]): 154–157 Da |
